Measurements published in patent publication US20130189764A1, “SELECTIVE GROWTH MEDIA” (Oxide Limited, priority 2000, published 2013).

Assays:
[1] = system: Salmonella typhimurium OCC 1870; assay: growth on nutrient agar streak plates, pure culture (Example 2); format: cell-based; conditions: S. typhimurium OCC 1870, nutrient agar, 0-10 mM tested
From the text: Example 1 was repeated, using Salmonella typhimurium OCC 1870 as the test organism. The results are shown in FIG. 3, which uses the same key as FIG. 2.

E. faecalis OCC 604 = assay: growth on nutrient agar, mixed culture with S. aureus (Example 7); format: cell-based, Enterococcus faecalis; conditions: E. faecalis in mixed culture with S. aureus
From the text: Example 6 was repeated, this time using a mixed culture of S. aureus OCC 102 and E. faecalis OCC 604, in the presence of AEP or alaphosphin. The empty columns represent growth of S. aureus, the shaded columns represent growth of E. faecalis. […] Thus alaphosphin could be used, when incorporated at an appropriate concentration in a medium, to inhibit growth of organisms such as Enterococci in samples whilst allowing Staphylococci to grow and be detected.

With `C[C@H](N)C(=O)N[C@@H](C)P(=O)(O)O` [alaphosphin, L-alanyl-L-1-aminoethylphosphonic acid] the “concentration at which growth is completely inhibited” value [1] was no less than 5 mM and the “concentration causing complete inhibition” value (E. faecalis OCC 604) was no less than 2 mM.
